The text below walks through data of publication PMC11558128 (Advanced Science, 2024).

The target of one experiment is T1, hNav1.7 (Homo sapiens, UniProt Q15858).
T1 construct: expressed in transfected cells; host or cells: HEK293T
As to the kind of experiment: cell-based. The note with it: whole-cell patch clamp, HEK293T, mean ± SEM, this study, read-out: IC50 on hNav1.7.

A further experiment has as its target T2, rKv4.2 (Rattus norvegicus, UniProt Q63881).
T2 construct: expressed in transfected cells; host or cells: HEK293T
T2 sequence (Q63881 1-630): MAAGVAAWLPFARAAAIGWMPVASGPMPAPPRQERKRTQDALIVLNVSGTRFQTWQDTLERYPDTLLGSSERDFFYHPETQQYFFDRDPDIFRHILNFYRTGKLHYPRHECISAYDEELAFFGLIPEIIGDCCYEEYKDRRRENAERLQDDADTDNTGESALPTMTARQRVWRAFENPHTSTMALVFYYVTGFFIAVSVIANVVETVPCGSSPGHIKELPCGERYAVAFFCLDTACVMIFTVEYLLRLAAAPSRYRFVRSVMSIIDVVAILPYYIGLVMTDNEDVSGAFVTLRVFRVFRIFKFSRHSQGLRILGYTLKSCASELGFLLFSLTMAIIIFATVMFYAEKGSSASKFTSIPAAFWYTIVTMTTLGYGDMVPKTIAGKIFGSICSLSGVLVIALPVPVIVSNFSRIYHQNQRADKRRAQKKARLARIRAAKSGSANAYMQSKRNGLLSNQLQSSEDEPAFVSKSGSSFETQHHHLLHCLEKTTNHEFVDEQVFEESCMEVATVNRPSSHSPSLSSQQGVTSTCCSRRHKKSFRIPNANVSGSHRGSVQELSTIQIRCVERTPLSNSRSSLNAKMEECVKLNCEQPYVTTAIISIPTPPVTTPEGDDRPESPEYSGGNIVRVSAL
Description: cell-based. The note with it: for IC50: whole-cell patch clamp, HEK293T, mean ± SEM, n = 3-8, read-out: IC50 on rKv4.2 WT.

Like-named read-outs stand apart in the source and are kept apart here. Positions of bridges follow the written chain, without caps; N, C: chain ends. Residues, ends and D or L forms follow the SMILES beside them.

T1 sequence (O60939 30-215): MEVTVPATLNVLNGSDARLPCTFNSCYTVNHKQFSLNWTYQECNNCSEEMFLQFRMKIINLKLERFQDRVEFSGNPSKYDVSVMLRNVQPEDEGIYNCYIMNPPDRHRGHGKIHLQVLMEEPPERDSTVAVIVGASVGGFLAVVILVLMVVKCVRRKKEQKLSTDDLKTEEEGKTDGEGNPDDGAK
T1 sequence (Q15858 other isoform, or with tags, fused parts or gaps): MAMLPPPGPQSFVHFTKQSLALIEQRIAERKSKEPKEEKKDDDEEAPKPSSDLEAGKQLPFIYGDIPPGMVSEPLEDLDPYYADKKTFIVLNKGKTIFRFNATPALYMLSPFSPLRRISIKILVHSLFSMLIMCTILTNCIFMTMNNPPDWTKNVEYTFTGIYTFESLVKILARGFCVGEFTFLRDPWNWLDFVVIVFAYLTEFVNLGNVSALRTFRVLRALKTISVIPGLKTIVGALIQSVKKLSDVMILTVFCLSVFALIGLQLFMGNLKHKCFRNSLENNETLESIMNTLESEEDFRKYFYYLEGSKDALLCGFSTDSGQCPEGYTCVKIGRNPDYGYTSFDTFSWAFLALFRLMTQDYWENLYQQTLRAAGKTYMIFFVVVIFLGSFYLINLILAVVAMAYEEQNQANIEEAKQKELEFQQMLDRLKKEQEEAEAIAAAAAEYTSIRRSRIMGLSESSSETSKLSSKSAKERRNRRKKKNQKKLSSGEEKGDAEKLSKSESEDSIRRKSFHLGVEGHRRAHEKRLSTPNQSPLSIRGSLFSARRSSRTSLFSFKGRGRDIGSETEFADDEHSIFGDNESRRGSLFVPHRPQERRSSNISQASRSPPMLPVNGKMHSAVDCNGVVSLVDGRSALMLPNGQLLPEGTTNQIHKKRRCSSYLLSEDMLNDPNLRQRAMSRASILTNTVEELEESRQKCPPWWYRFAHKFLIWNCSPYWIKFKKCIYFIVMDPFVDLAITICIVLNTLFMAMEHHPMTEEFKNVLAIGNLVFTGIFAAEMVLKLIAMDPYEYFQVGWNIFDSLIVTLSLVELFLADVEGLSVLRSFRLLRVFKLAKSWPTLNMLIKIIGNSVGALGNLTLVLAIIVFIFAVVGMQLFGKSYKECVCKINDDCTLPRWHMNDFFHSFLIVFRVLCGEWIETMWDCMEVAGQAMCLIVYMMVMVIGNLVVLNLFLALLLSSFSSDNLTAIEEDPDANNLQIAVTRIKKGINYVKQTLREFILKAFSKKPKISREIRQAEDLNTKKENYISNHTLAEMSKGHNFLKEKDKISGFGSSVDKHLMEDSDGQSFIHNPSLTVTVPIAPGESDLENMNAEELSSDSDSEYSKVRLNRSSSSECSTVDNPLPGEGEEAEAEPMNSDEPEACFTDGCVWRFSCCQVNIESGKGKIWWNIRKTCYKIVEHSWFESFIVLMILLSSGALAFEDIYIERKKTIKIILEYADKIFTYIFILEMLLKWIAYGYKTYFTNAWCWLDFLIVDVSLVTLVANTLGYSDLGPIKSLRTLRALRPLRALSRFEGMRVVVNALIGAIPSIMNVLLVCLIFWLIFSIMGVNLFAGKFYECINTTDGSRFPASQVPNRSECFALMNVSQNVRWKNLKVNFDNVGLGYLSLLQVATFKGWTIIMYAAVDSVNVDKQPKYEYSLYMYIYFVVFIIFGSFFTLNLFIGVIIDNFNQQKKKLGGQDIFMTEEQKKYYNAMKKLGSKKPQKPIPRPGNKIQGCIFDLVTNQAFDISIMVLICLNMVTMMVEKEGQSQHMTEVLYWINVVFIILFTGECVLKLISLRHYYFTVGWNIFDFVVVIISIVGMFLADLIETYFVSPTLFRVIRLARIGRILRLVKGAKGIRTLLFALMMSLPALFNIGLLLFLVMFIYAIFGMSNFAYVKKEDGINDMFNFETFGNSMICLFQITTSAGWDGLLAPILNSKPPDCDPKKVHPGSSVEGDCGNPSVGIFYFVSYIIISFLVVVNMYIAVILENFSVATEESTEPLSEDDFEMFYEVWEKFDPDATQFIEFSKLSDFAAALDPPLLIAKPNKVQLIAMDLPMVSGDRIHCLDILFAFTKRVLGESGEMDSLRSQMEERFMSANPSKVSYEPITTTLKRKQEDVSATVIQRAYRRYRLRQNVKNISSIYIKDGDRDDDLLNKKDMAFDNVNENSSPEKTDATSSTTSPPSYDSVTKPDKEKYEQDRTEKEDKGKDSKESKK
T1 sequence (Q07699 19-218, further chain): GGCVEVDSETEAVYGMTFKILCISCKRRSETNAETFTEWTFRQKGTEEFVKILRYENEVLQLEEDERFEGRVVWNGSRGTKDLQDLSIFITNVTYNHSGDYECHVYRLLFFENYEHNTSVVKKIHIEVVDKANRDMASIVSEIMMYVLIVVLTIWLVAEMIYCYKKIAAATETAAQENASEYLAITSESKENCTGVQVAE

With `CC(C)C[C@H](NC(=O)[C@H](Cc1ccc(O)cc1)NC(=O)[C@@H](NC(=O)[C@H](CCCCN)NC(=O)[C@@H]1CSSC[C@@H]2NC(=O)[C@H](CCC(=O)O)NC(=O)[C@H](CC(N)=O)NC(=O)[C@H](CCCCN)NC(=O)CNC(=O)[C@@H]3CCCN3C(=O)[C@H]([C@@H](C)O)NC(=O)[C@@H]3CSSC[C@H](NC(=O)[C@H](C)NC(=O)[C@H](Cc4ccc(O)cc4)NC(=O)[C@H](CC(N)=O)NC(=O)[C@@H]4CCCN4C(=O)[C@H](CSSC[C@H](NC(=O)CN)C(=O)N[C@@H](CCCCN)C(=O)NCC(=O)N[C@@H](Cc4ccccc4)C(=O)NCC(=O)N[C@@H](CC(=O)O)C(=O)N[C@@H](CO)C(=O)N3)NC2=O)C(=O)N[C@@H](CO)C(=O)N[C@@H](CO)C(=O)N[C@@H](C)C(=O)N[C@@H](Cc2c[nH]cn2)C(=O)N[C@@H](CCCCN)C(=O)N[C@@H](Cc2c[nH]c3ccccc23)C(=O)N1)C(C)C)C(N)=O` [K25A] (H-GCKGFGDSCTPGKNECCPNYACSSAHKWCKVYL-NH2; disulfide 2-17, 9-22, 16-29), the IC50 at hNav1.7 (SEM) was 2000 ± 332 nM; at rKv4.2, > 20000 nM.

With `CC(C)[C@H](NC(=O)[C@H](CCCCN)NC(=O)[C@@H]1CSSC[C@@H]2NC(=O)[C@H](CCC(=O)O)NC(=O)[C@H](CC(N)=O)NC(=O)[C@H](CCCCN)NC(=O)CNC(=O)[C@@H]3CCCN3C(=O)[C@H]([C@@H](C)O)NC(=O)[C@@H]3CSSC[C@H](NC(=O)[C@H](C)NC(=O)[C@H](Cc4ccc(O)cc4)NC(=O)[C@H](CC(N)=O)NC(=O)[C@@H]4CCCN4C(=O)[C@H](CSSC[C@H](NC(=O)CN)C(=O)N[C@@H](CCCCN)C(=O)NCC(=O)N[C@@H](Cc4ccccc4)C(=O)NCC(=O)N[C@@H](CC(=O)O)C(=O)N[C@@H](CO)C(=O)N3)NC2=O)C(=O)N[C@@H](CO)C(=O)N[C@@H](CO)C(=O)N[C@@H](CCCCN)C(=O)N[C@@H](Cc2c[nH]cn2)C(=O)N[C@@H](CCCCN)C(=O)N[C@@H](Cc2c[nH]c3ccccc23)C(=O)N1)C(=O)N[C@@H](Cc1ccc(O)cc1)C(=O)N[C@@H](CCCCN)C(N)=O` [L33K] (H-GCKGFGDSCTPGKNECCPNYACSSKHKWCKVYK-NH2; disulfide 2-17, 9-22, 16-29), the figures for the IC50 at hNav1.7 and at rKv4.2 (SEM) were > 10000 nM and 20000 ± 4000 nM, respectively.

On to `CC(C)C[C@H](NC(=O)[C@H](Cc1ccc(O)cc1)NC(=O)[C@@H](NC(=O)[C@H](CCCCN)NC(=O)[C@@H]1CSSC[C@@H]2NC(=O)[C@H](CCC(=O)O)NC(=O)[C@H](CC(N)=O)NC(=O)[C@H](CCCCN)NC(=O)CNC(=O)[C@@H]3CCCN3C(=O)[C@H]([C@@H](C)O)NC(=O)[C@@H]3CSSC[C@H](NC(=O)[C@H](C)NC(=O)[C@H](Cc4ccc(O)cc4)NC(=O)[C@H](CCCCN)NC(=O)[C@@H]4CCCN4C(=O)[C@H](CSSC[C@H](NC(=O)CN)C(=O)N[C@@H](CCCCN)C(=O)NCC(=O)N[C@@H](Cc4ccccc4)C(=O)NCC(=O)N[C@@H](CC(=O)O)C(=O)N[C@@H](CO)C(=O)N3)NC2=O)C(=O)N[C@@H](CO)C(=O)N[C@@H](CO)C(=O)N[C@@H](CCCCN)C(=O)N[C@@H](Cc2c[nH]cn2)C(=O)N[C@@H](CCCCN)C(=O)N[C@@H](Cc2c[nH]c3ccccc23)C(=O)N1)C(C)C)C(N)=O` [N19K] (H-GCKGFGDSCTPGKNECCPKYACSSKHKWCKVYL-NH2; disulfide 2-17, 9-22, 16-29), for which the IC50 on rKv4.2 (SEM) was determined as 475 ± 103 nM.

For the molecule `CC(C)C[C@H](NC(=O)[C@H](Cc1ccc(O)cc1)NC(=O)[C@@H](NC(=O)[C@H](CCCCN)NC(=O)[C@@H]1CSSC[C@@H]2NC(=O)[C@H](CCC(=O)O)NC(=O)[C@H](CC(N)=O)NC(=O)[C@H](CCCCN)NC(=O)CNC(=O)[C@@H]3CCCN3C(=O)[C@H]([C@@H](C)O)NC(=O)[C@@H]3CSSC[C@H](NC(=O)[C@H](C)NC(=O)[C@H](Cc4ccc(O)cc4)NC(=O)[C@H](CC(C)C)NC(=O)[C@@H]4CCCN4C(=O)[C@H](CSSC[C@H](NC(=O)CN)C(=O)N[C@@H](CCCCN)C(=O)NCC(=O)N[C@@H](Cc4ccccc4)C(=O)NCC(=O)N[C@@H](CC(=O)O)C(=O)N[C@@H](CO)C(=O)N3)NC2=O)C(=O)N[C@@H](CO)C(=O)N[C@@H](CO)C(=O)N[C@@H](CCCCN)C(=O)N[C@@H](Cc2c[nH]cn2)C(=O)N[C@@H](CCCCN)C(=O)N[C@@H](Cc2c[nH]c3ccccc23)C(=O)N1)C(C)C)C(N)=O` [N19L] (H-GCKGFGDSCTPGKNECCPLYACSSKHKWCKVYL-NH2; disulfide 2-17, 9-22, 16-29), the IC50 on rKv4.2 (SEM) amounted to 42 ± 4 nM. `CC(C)C[C@H](NC(=O)[C@H](Cc1ccc(O)cc1)NC(=O)[C@@H](NC(=O)[C@H](CCCCN)NC(=O)[C@@H]1CSSC[C@@H]2NC(=O)[C@H](CCC(=O)O)NC(=O)[C@H](CC(N)=O)NC(=O)[C@H](CCCCN)NC(=O)CNC(=O)[C@@H]3CCCN3C(=O)[C@H]([C@@H](C)O)NC(=O)[C@@H]3CSSC[C@H](NC(=O)[C@H](C)NC(=O)[C@H](Cc4ccc(O)cc4)NC(=O)[C@H](CC(N)=O)NC(=O)[C@H](C)NC(=O)[C@H](CSSC[C@H](NC(=O)CN)C(=O)N[C@@H](CCCCN)C(=O)NCC(=O)N[C@@H](Cc4ccccc4)C(=O)NCC(=O)N[C@@H](CC(=O)O)C(=O)N[C@@H](CO)C(=O)N3)NC2=O)C(=O)N[C@@H](CO)C(=O)N[C@@H](CO)C(=O)N[C@@H](CCCCN)C(=O)N[C@@H](Cc2c[nH]cn2)C(=O)N[C@@H](CCCCN)C(=O)N[C@@H](Cc2c[nH]c3ccccc23)C(=O)N1)C(C)C)C(N)=O` [P18A] (H-GCKGFGDSCTPGKNECCANYACSSKHKWCKVYL-NH2; disulfide 2-17, 9-22, 16-29): the IC50 on rKv4.2 (SEM) is 140 ± 43 nM. With `CC(C)C[C@H](NC(=O)[C@H](Cc1ccc(O)cc1)NC(=O)[C@@H](NC(=O)[C@H](CCCCN)NC(=O)[C@@H]1CSSC[C@@H]2NC(=O)[C@H](CCC(=O)O)NC(=O)[C@H](CC(N)=O)NC(=O)[C@H](CCCCN)NC(=O)CNC(=O)[C@@H]3CCCN3C(=O)[C@H]([C@@H](C)O)NC(=O)[C@@H]3CSSC[C@H](NC(=O)[C@H](C)NC(=O)[C@H](Cc4ccc(O)cc4)NC(=O)[C@H](CC(N)=O)NC(=O)[C@H](CCCCN)NC(=O)[C@H](CSSC[C@H](NC(=O)CN)C(=O)N[C@@H](CCCCN)C(=O)NCC(=O)N[C@@H](Cc4ccccc4)C(=O)NCC(=O)N[C@@H](CC(=O)O)C(=O)N[C@@H](CO)C(=O)N3)NC2=O)C(=O)N[C@@H](CO)C(=O)N[C@@H](CO)C(=O)N[C@@H](CCCCN)C(=O)N[C@@H](Cc2c[nH]cn2)C(=O)N[C@@H](CCCCN)C(=O)N[C@@H](Cc2c[nH]c3ccccc23)C(=O)N1)C(C)C)C(N)=O` [P18K] (H-GCKGFGDSCTPGKNECCKNYACSSKHKWCKVYL-NH2; disulfide 2-17, 9-22, 16-29), at rKv4.2 (SEM), the IC50 is 167 ± 117 nM.

As for `CC(C)C[C@H](NC(=O)[C@H](Cc1ccc(O)cc1)NC(=O)[C@@H](NC(=O)[C@H](CCCCN)NC(=O)[C@@H]1CSSC[C@@H]2NC(=O)[C@H](CCC(=O)O)NC(=O)[C@H](CC(N)=O)NC(=O)[C@H](CCCCN)NC(=O)CNC(=O)[C@@H]3CCCN3C(=O)[C@H](CCC(=O)O)NC(=O)[C@@H]3CSSC[C@H](NC(=O)[C@H](C)NC(=O)[C@H](Cc4ccc(O)cc4)NC(=O)[C@H](CC(N)=O)NC(=O)[C@@H]4CCCN4C(=O)[C@H](CSSC[C@H](NC(=O)CN)C(=O)N[C@@H](CCCCN)C(=O)NCC(=O)N[C@@H](Cc4ccccc4)C(=O)NCC(=O)N[C@@H](CC(=O)O)C(=O)N[C@@H](CO)C(=O)N3)NC2=O)C(=O)N[C@@H](CO)C(=O)N[C@@H](CO)C(=O)N[C@@H](CCCCN)C(=O)N[C@@H](Cc2c[nH]cn2)C(=O)N[C@@H](CCCCN)C(=O)N[C@@H](Cc2c[nH]c3ccccc23)C(=O)N1)C(C)C)C(N)=O` [T10E] (H-GCKGFGDSCEPGKNECCPNYACSSKHKWCKVYL-NH2; disulfide 2-17, 9-22, 16-29), the IC50 at rKv4.2 (SEM) was found to be 452 ± 221 nM.

For `CC(C)C[C@H](NC(=O)[C@H](Cc1ccc(O)cc1)NC(=O)[C@@H](NC(=O)[C@H](CCCCN)NC(=O)[C@@H]1CSSC[C@@H]2NC(=O)[C@H](CCC(=O)O)NC(=O)[C@H](CC(N)=O)NC(=O)[C@H](CCCCN)NC(=O)CNC(=O)[C@@H]3CCCN3C(=O)[C@H]([C@@H](C)O)NC(=O)[C@@H]3CSSC[C@H](NC(=O)[C@H](C)NC(=O)[C@H](Cc4ccc(O)cc4)NC(=O)[C@H](CC(N)=O)NC(=O)[C@@H]4CCCN4C(=O)[C@H](CSSC[C@H](NC(=O)CN)C(=O)N[C@@H](CCCCN)C(=O)NCC(=O)N[C@@H](Cc4ccccc4)C(=O)NCC(=O)N[C@@H](CC(=O)O)C(=O)N[C@@H](CO)C(=O)N3)NC2=O)C(=O)N[C@@H](CO)C(=O)N[C@@H](CO)C(=O)N[C@@H](CCCCN)C(=O)N[C@@H](Cc2c[nH]cn2)C(=O)N[C@@H](CCCCN)C(=O)N[C@@H](C)C(=O)N1)C(C)C)C(N)=O` [W28A] (H-GCKGFGDSCTPGKNECCPNYACSSKHKACKVYL-NH2; disulfide 2-17, 9-22, 16-29; N-terminus and C-terminus assumed), the “inhibition of rKv4.2, in words” value at rKv4.2 (analogue compared with its parent toxin) was “dramatically decreased inhibition”.
